Assay results as given in PubChem BioAssay AID1963431 (Molecular Pharmacology Branch, DTP, NCI, 2024).

Tested on: Rh18 complex spheroid viability, percent test/control
Experiment: Anticancer human tumor Rh18 cell line growth inhibition [Asc];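 further: spheroids exposed to compound for 7 days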;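 on viability, T/C: 100% = DMSO vehicle control wells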
Details: for IC50: curve of first compound; for viability, T/C: stronger effect = lower value; active means viability on the fitted dose curve at most 10% of control; inactive means the rest
Method in brief: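 Complex spheroids combining tumor cells with HUVEC endothelial cells and human MSCs, at 37 degrees C, 5% CO2; agents tested alone or combined, half-log dilutions from at or near clinical Cmax, or 10 microM if Cmax unknown.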

[1] = second compound 0.1 µM, first compound 0.0316 µM
[2] = second compound 0.1 µM, first compound 0.1 µM
[3] = second compound 0.1 µM, first compound 0.316 µM
[4] = second compound 0.1 µM, first compound 1 µM
[5] = second compound 0.1 µM, first compound 3.16 µM
[6] = second compound 0.1 µM, first compound 10 µM
[7] = second compound 0.316 µM, first compound 0.0316 µM
[8] = second compound 0.316 µM, first compound 0.1 µM
[9] = second compound 0.316 µM, first compound 0.316 µM
[10] = second compound 0.316 µM, first compound 1 µM
[11] = second compound 0.316 µM, first compound 3.16 µM
[12] = second compound 0.316 µM, first compound 10 µM
[13] = second compound 1 µM, first compound 0.0316 µM
[14] = second compound 1 µM, first compound 0.1 µM
[15] = second compound 1 µM, first compound 0.316 µM
[16] = second compound 1 µM, first compound 1 µM
[17] = second compound 1 µM, first compound 3.16 µM
[18] = second compound 1 µM, first compound 10 µM
[19] = second compound 3.16 µM, first compound 0.0316 µM
[20] = second compound 3.16 µM, first compound 0.1 µM
[21] = second compound 3.16 µM, first compound 0.316 µM
[22] = second compound 3.16 µM, first compound 1 µM
[23] = second compound 3.16 µM, first compound 3.16 µM
[24] = second compound 3.16 µM, first compound 10 µM
[25] = second compound 10 µM, first compound 0.0316 µM
[26] = second compound 10 µM, first compound 0.1 µM
[27] = second compound 10 µM, first compound 0.316 µM
[28] = second compound 10 µM, first compound 1 µM
[29] = second compound 10 µM, first compound 3.16 µM
[30] = second compound 10 µM, first compound 10 µM

C=C(F)C(=O)N1CCN(c2nc(OCC3CCCN3C)nc3c2CCN(c2cccc4cccc(Cl)c24)C3)CC1CC#N (stereo not given) + Cc1c(S(C)(=O)=O)c(-c2cc(F)cc(N3CCN(c4ccc(NS(=O)(=O)c5ccc(NC(CCN6CCC(C(=O)OCCCP(=O)(O)O)CC6)CSc6ccccc6)c(S(=O)(=O)C(F)(F)F)c5)cc4)CC3)c2)c(-c2ccc(Cl)cc2)n1C(C)C
inactive: viability, T/C [1] 13.9% | viability, T/C [2] 14.1% | viability, T/C [3] 16.8% | viability, T/C [4] 18.4% | viability, T/C [7] 6.98% | viability, T/C [13] 7.24%
< 31.6 nM: IC50 (second compound 0.1 µM) | IC50 (second compound 0.316 µM) | IC50 (second compound 1 µM) | IC50 (second compound 3.16 µM) | IC50 (second compound 10 µM)
active: viability, T/C [5] 4.57% | viability, T/C [6] 0.19% | viability, T/C [8] 8.95% | viability, T/C [9] 10.2% | viability, T/C [10] 10.4% | viability, T/C [11] 1.87% | viability, T/C [12] 0.13% | viability, T/C [14] 8.76% | viability, T/C [15] 10.9% | viability, T/C [16] 8.02% | viability, T/C [17] 0.6% | viability, T/C [18] 0.14% | viability, T/C [19] 7.34% | viability, T/C [20] 7.03% | viability, T/C [21] 8.15% | viability, T/C [22] 4.6% | viability, T/C [23] 0.19% | viability, T/C [24] 0.18% | viability, T/C [25] 4.96% | viability, T/C [26] 5.5% | viability, T/C [27] 5.96% | viability, T/C [28] 4.82% | viability, T/C [29] 0.38% | viability, T/C [30] 0.23%

C=CC(=O)N1CCN(c2nc(=O)n(-c3c(C)ccnc3C(C)C)c3nc(-c4c(O)cccc4F)c(F)cc23)C(C)C1 (stereo not given) + Cc1c(S(C)(=O)=O)c(-c2cc(F)cc(N3CCN(c4ccc(NS(=O)(=O)c5ccc(NC(CCN6CCC(C(=O)OCCCP(=O)(O)O)CC6)CSc6ccccc6)c(S(=O)(=O)C(F)(F)F)c5)cc4)CC3)c2)c(-c2ccc(Cl)cc2)n1C(C)C
active: viability, T/C [13] 8.27% | viability, T/C [14] 8.47% | viability, T/C [15] 8.62% | viability, T/C [16] 7.63% | viability, T/C [17] 11.4% | viability, T/C [18] 15% | viability, T/C [19] 6.03% | viability, T/C [20] 8.21% | viability, T/C [21] 7.26% | viability, T/C [22] 8.5% | viability, T/C [23] 7.74% | viability, T/C [24] 13.2% | viability, T/C [25] 3.36% | viability, T/C [26] 5.72% | viability, T/C [27] 4.34% | viability, T/C [28] 7.21% | viability, T/C [29] 5.57% | viability, T/C [30] 13%
inactive: viability, T/C [1] 15.2% | viability, T/C [2] 17% | viability, T/C [3] 15.5% | viability, T/C [4] 19% | viability, T/C [5] 20.8% | viability, T/C [6] 29.2% | viability, T/C [7] 11.4% | viability, T/C [8] 11.5% | viability, T/C [9] 11.4% | viability, T/C [10] 12.6% | viability, T/C [11] 15.1% | viability, T/C [12] 17.5%
< 31.6 nM: IC50 (second compound 0.1 µM) | IC50 (second compound 0.316 µM) | IC50 (second compound 1 µM) | IC50 (second compound 3.16 µM) | IC50 (second compound 10 µM)

CCN1C(C(=O)NC23CCC(C(=O)O)(CC2)CC3)C(c2cccc(Cl)c2F)C2(C(=O)Nc3cc(Cl)ccc32)C12CCCCC2 (stereo not given) + Cc1c(S(C)(=O)=O)c(-c2cc(F)cc(N3CCN(c4ccc(NS(=O)(=O)c5ccc(NC(CCN6CCC(C(=O)OCCCP(=O)(O)O)CC6)CSc6ccccc6)c(S(=O)(=O)C(F)(F)F)c5)cc4)CC3)c2)c(-c2ccc(Cl)cc2)n1C(C)C
< 9.49 nM: IC50 (second compound 0.1 µM) | IC50 (second compound 0.316 µM) | IC50 (second compound 1 µM) | IC50 (second compound 3.16 µM) | IC50 (second compound 10 µM)
active: viability, T/C (second compound 0.1 µM, first compound 0.3 µM) 6.82% | viability, T/C (second compound 0.1 µM, first compound 0.949 µM) 7.29% | viability, T/C (second compound 0.1 µM, first compound 3 µM) 3.96% | viability, T/C (second compound 0.316 µM, first compound 0.0949 µM) 7.76% | viability, T/C (second compound 0.316 µM, first compound 0.3 µM) 5.97% | viability, T/C (second compound 0.316 µM, first compound 0.949 µM) 4.04% | viability, T/C (second compound 0.316 µM, first compound 3 µM) 0.91% | viability, T/C (second compound 1 µM, first compound 0.00949 µM) 8.76% | viability, T/C (second compound 1 µM, first compound 0.03 µM) 8.85% | viability, T/C (second compound 1 µM, first compound 0.0949 µM) 5.21% | viability, T/C (second compound 1 µM, first compound 0.3 µM) 4.08% | viability, T/C (second compound 1 µM, first compound 0.949 µM) 1.55% | viability, T/C (second compound 1 µM, first compound 3 µM) 0.87% | viability, T/C (second compound 3.16 µM, first compound 0.00949 µM) 6.63% | viability, T/C (second compound 3.16 µM, first compound 0.03 µM) 5.76% | viability, T/C (second compound 3.16 µM, first compound 0.0949 µM) 4.28% | viability, T/C (second compound 3.16 µM, first compound 0.3 µM) 3.45% | viability, T/C (second compound 3.16 µM, first compound 0.949 µM) 0.93% | viability, T/C (second compound 3.16 µM, first compound 3 µM) 0.73% | viability, T/C (second compound 10 µM, first compound 0.00949 µM) 5.47% | viability, T/C (second compound 10 µM, first compound 0.03 µM) 3.7% | viability, T/C (second compound 10 µM, first compound 0.0949 µM) 2.69% | viability, T/C (second compound 10 µM, first compound 0.3 µM) 1.52% | viability, T/C (second compound 10 µM, first compound 0.949 µM) 0.64% | viability, T/C (second compound 10 µM, first compound 3 µM) 0.73%
inactive: viability, T/C (second compound 0.1 µM, first compound 0.00949 µM) 19% | viability, T/C (second compound 0.1 µM, first compound 0.03 µM) 21% | viability, T/C (second compound 0.1 µM, first compound 0.0949 µM) 10.3% | viability, T/C (second compound 0.316 µM, first compound 0.00949 µM) 12% | viability, T/C (second compound 0.316 µM, first compound 0.03 µM) 16.4%

CNC(C)C(=O)NC1CN(S(=O)(=O)c2cccc(S(=O)(=O)N3CCC4CCC(C(=O)NC(c5ccccc5)c5ccccc5)N4C(=O)C(NC(=O)C(C)NC)C3)c2)CCC2CCC(C(=O)NC(c3ccccc3)c3ccccc3)N2C1=O (stereo not given) + Cc1c(S(C)(=O)=O)c(-c2cc(F)cc(N3CCN(c4ccc(NS(=O)(=O)c5ccc(NC(CCN6CCC(C(=O)OCCCP(=O)(O)O)CC6)CSc6ccccc6)c(S(=O)(=O)C(F)(F)F)c5)cc4)CC3)c2)c(-c2ccc(Cl)cc2)n1C(C)C
< 3.16 nM: IC50 (second compound 0.1 µM) | IC50 (second compound 0.316 µM) | IC50 (second compound 1 µM) | IC50 (second compound 3.16 µM) | IC50 (second compound 10 µM)
active: viability, T/C (second compound 0.1 µM, first compound 0.01 µM) 9.77% | viability, T/C [1] 7.82% | viability, T/C [2] 7.58% | viability, T/C [3] 5.36% | viability, T/C [4] 6.51% | viability, T/C (second compound 0.316 µM, first compound 0.00316 µM) 8.42% | viability, T/C (second compound 0.316 µM, first compound 0.01 µM) 7.07% | viability, T/C [7] 8.09% | viability, T/C [8] 5.52% | viability, T/C [9] 3.69% | viability, T/C [10] 5.21% | viability, T/C (second compound 1 µM, first compound 0.00316 µM) 7.09% | viability, T/C (second compound 1 µM, first compound 0.01 µM) 5.98% | viability, T/C [13] 4.86% | viability, T/C [14] 4.96% | viability, T/C [15] 4.99% | viability, T/C [16] 4.12% | viability, T/C (second compound 3.16 µM, first compound 0.00316 µM) 4.15% | viability, T/C (second compound 3.16 µM, first compound 0.01 µM) 4.41% | viability, T/C [19] 3.7% | viability, T/C [20] 4.89% | viability, T/C [21] 2.21% | viability, T/C [22] 3.61% | viability, T/C (second compound 10 µM, first compound 0.00316 µM) 5.31% | viability, T/C (second compound 10 µM, first compound 0.01 µM) 4.19% | viability, T/C [25] 2.98% | viability, T/C [26] 3.4% | viability, T/C [27] 2.94% | viability, T/C [28] 2.34%
inactive: viability, T/C (second compound 0.1 µM, first compound 0.00316 µM) 11.9%
